The subject of data set [1] is prostate cancer lesions. The data set is described as follows: [^68Ga]Ga-PSMA-11 PET/CT findings in the same patients. The format is in vivo, human (patients). As to conditions: for SUVmax of undetermined finding: 1 h p.i. The method, then:
The time interval between both, [^89Zr]Zr-PSMA-617 and [^68Ga]Ga-PSMA-11 PET/CT, was 31 ± 18 days (range 5–49 days), with no treatment performed in between. Prostate-specific antigen (PSA) serum level at time of imaging ranged from 0.43 to 1.92 ng/ml. All patients were initially treated with radical prostatectomy (RP). Initial Gleason score ranged from 7a to 9. Four patients underwent salvage treatments such as androgen-deprivation therapy (ADT), lymphadenectomy (LA) or radiation therapy (RT). Detailed patient characteristics including age, Gleason score, primary therapy, salvage therapies, time from initial diagnosis (ID) of prostate cancer, PSA and PSA doubling time (DT) are presented in Table 1. [^89Zr]Zr-PSMA-617 PET/CT imaging was performed on a compassionate use basis under the German Pharmaceutical Act §13 (2b). The medical indication for the examination and the labeling of the tracer were under the direct responsibility of the applying physician. Patients gave their written consent after being thoroughly informed about the general risks of both radiation exposure and application of a novel PET tracer including possible adverse effects of, e.g., therapeutic PSMA tracers. Furthermore, all patients agreed to the publication of the resulting data in accordance with the Declaration of Helsinki.

Details of data set [2]: method as in PMID 34326129. As to conditions: cited from earlier work.

Consider `O=C([O-])CN(CCN(CC(=O)[O-])Cc1cc(CCC(=O)NCCCCCC(=O)NCCCC[C@H](NC(=O)N[C@@H](CCC(=O)O)C(=O)O)C(=O)O)ccc1[O-])Cc1cc(CCC(=O)O)ccc1[O-].[68Ga+3].[OH3+]` [[^68Ga]Ga-PSMA-11], for which the “Findings on [^68Ga]Ga-PSMA-11 PET/CT” value in data set [1] (Pt. no 1, PSA 1.92 ng/ml) is reported as “No suspicious findings”; in data set [1] (Pt. no 2, PSA 1.75 ng/ml), 1 × LNM + undetermined finding (suspicion of right iliac LNM); in data set [1] (Pt. no 3, PSA 0.66 ng/ml) it was “No suspicious findings”; in data set [1] (Pt. no 4, PSA 1.77 ng/ml) it was “Undetermined finding (suspicion of peritoneal metastasis)”; in data set [1] (Pt. no 5, PSA 0.63 ng/ml) it was “No suspicious findings”; in data set [1] (Pt. no 6, PSA 0.43 ng/ml) it was “Undetermined finding (suspicion of local recurrence in seminal vesicle bed)”. Moreover, the “Findings on [^68Ga]Ga-PSMA-11 PET/CT” value in data set [1] (Pt. no 7, PSA 0.68 ng/ml) was “No suspicious findings”. The “SUVmax of undetermined finding” value in data set [1] (patient no. 2, pelvic tracer uptake, considered as unspecific uptake) is recorded as 4.47; in data set [1] (patient no. 4, faint uptake in peritoneal lesion), 2.06.

Take [^89Zr]Zr-PSMA-DFO: the Effective dose in data set [2] is on record as 0.15 ± 0.04 mSv/MBq.
